According to patent EP0234500A1, “Antiasthma inhalation compositions” (RORER PHARMACEUTICAL CORPORATION, priority 1986, dated 1987):
Values joined by “and” are separate entries in the source; they are usually repeats but may differ in a detail not shown here. Identical values can stand only once. Counter-ions that a name gives are not always drawn.

Key:
[1] = Solubility of the active compound in ethanol/propellant mixture; type: physicochemical
From the text: Other aspects of the present invention include solubility of the active compound in the pharmaceutically acceptable solvent, ethyl alcohol, the maintainance in solution of the active compound upon the addition of the propellant(s) and the particle size distribution of the aerosol preparation. The compounds of the present invention are soluble in ethyl alcohol.

[2] = Particle size distribution and MMAD of aerosol formulations; type: physicochemical; set-up: MMAD**: unit: micrometers (µm); conditions: for MMAD**: Mass Median Aerodynamic Diameter; for Part. Size (mg collected) per 20 actuations 4 µ*: Particle Size Limit = 4 µ to 8 µ; for mg at 1-8 µ: per 20 actuations
From the text: Other essential properties of aerosol formulations are the particle size distribution and the related mass median aerodynamic diameter of the particles. It is generally required that the effective range for inahalation products be approximately in the range of 1 to 8 micrometers (um). The particle size distribution helps, inter alia, to reduce loss on impaction on the tongue and oropharynx of the particles expelled from the pressurized container.

Male Hartley guinea pigs = experiment: Antigen-induced bronchoconstriction in ovalbumin-immunized anesthetized guinea pigs, aerosol administration; type: in vivo; conditions: 1% aerosol formulation, 25 actuations, approximately 5 mg (or 15 mg/kg), 15 minutes before ovalbumin 0.3 mg/kg i.v. challenge, n=7
Description: Male Hartley guinea pigs (200-250 g) were immunized with ovalbumin, 2.7 mg/kg i.p., followed in 30 minutes by Salmonella typhosa lipopolysaccharide, 20 ug i.p. Thirteen to fifteen days after immunization, each guinea pig was anesthetized with sodium pentobarbital, 50 mg/kg i.p., and a jugular vein and the trachea were cannulated. The animal was mechanically ventilated (80 breaths/min. 2ml/breath). Needle electrodes were attached to the limbs for monitoring ECG and heart rate. Airway pressure was measured with a Validyne pressure transducer (+ 20 cm H20 range) connected to the tracheal cannula. Airway pressure for each breath was recorded on a polygraph, while mean values over 6-second periods were printed on a digital terminal. […] All bronchoconstrictor responses to the second dose of LTD4 and to antigen were quantified as the percent increase in airway pressure over the baseline value. The normalized response of each animal is expressed as the ratio of antigen-induced to LTD4-induced bronchoconstriction. Mean values and standard errors of these ratios in control and drug-treated groups were calculated and compared statistically by Student's t-test. The activity of each drug is expressed as the percent inhibition of the mean control response.

[3] = Compound of Example 1 1.0, ETOH 5.0, P 114 47, P 12 47, hydrochloride
[4] = Compound of Example 1 1.0, ETOH 10.0, P 114 25.0, P 12 75.0
[5] = Compound of Example 1 1.0, ETOH 10.0, P 114 35, P 12 53
[6] = Compound of Example 1 1.0, ETOH 10.0, P 114 44.5, P 12 44.5
[7] = Compound of Example 1 1.0, ETOH 10.0, P 114 44.5, P 12 44.5, hydrochloride
[8] = Compound of Example 1 2.0, ETOH 10.0, P 114 44.00, P 12 44.00
[9] = Compound of Example 1 2.5, ETOH 10.0, P 114 43.75, P 12 43.75, hydrochloride
[10] = Compound of Example 1 3.0, ETOH 10.0, P 114 43.5, P 12 43.5
[11] = Compound of Example 1 3.5, ETOH 10.0, P 114 43.25, P 12 43.25
[12] = Compound of Example 1 5.0, ETOH 30.0, P 114 32.5, P 12 32.5
[13] = Compound of Example 1 6.0, ETOH 20.0, P 114 29.6, P 12 44.4
[14] = Compound of Example 1 9.0, ETOH 30.0, P 114 17, P 12 44

Solubility at 24°C ([1]; Ethanol (W/W) 5%, Propellants 114/12 (50/50 Mixture) 93.2%): 1.8% | Solubility at 24°C ([1]; Ethanol (W/W) 10%, Propellants 114/12 (50/50 Mixture) 86.0%): 4.0% | Solubility at 24°C ([1]; Ethanol (W/W) 20%, Propellants 114/12 (50/50 Mixture) 74.0%): 6.0% | Solubility at 24°C ([1]; Ethanol (W/W) 30%, Propellants 114/12 (50/50 Mixture) 61.0%): 9.0% | Part. Size (mg collected) per 20 actuations 1 µ [2, 3]: 0.448 mg and 0.607 mg and 0.667 mg | Part. Size (mg collected) per 20 actuations 2 µ [2, 3]: 0.973 mg and 1.529 mg and 1.532 mg | Pressure PSI [2, 3]: 58.7 PSI and 60.2 PSI | cum % 1-8 µ [2, 3]: 57.74% and 60.73% and 66.20% | Part. Size (mg collected) per 20 actuations 1 µ [2, 4]: 0.499 mg | Part. Size (mg collected) per 20 actuations 2 µ [2, 4]: 1.167 mg | cum % 1-8 µ [2, 4]: 45.36% | Part. Size (mg collected) per 20 actuations 1 µ [2, 5]: 0.503 mg | Part. Size (mg collected) per 20 actuations 2 µ [2, 5]: 1.201 mg | Pressure PSI [2, 5]: 56 PSI | cum % 1-8 µ [2, 5]: 55.41% | Pressure PSI [2, 6]: 49.3 PSI | Part. Size (mg collected) per 20 actuations 1 µ [2, 7]: 0.498 mg and 0.479 mg | Part. Size (mg collected) per 20 actuations 2 µ [2, 7]: 1.243 mg and 0.868 mg | cum % 1-8 µ [2, 7]: 53.70% and 57.26% | Part. Size (mg collected) per 20 actuations 1 µ [2, 8]: 0.661 mg | Part. Size (mg collected) per 20 actuations 2 µ [2, 8]: 1.373 mg | cum % 1-8 µ [2, 8]: 46.71% | Part. Size (mg collected) per 20 actuations 1 µ [2, 9]: 0.514 mg and 0.528 mg and 0.638 mg | Part. Size (mg collected) per 20 actuations 2 µ [2, 9]: 1.380 mg and 1.435 mg and 1.106 mg | cum % 1-8 µ [2, 9]: 44.86% and 44.36% and 42.87% | Part. Size (mg collected) per 20 actuations 1 µ [2, 10]: 0.538 mg | Part. Size (mg collected) per 20 actuations 2 µ [2, 10]: 1.478 mg | cum % 1-8 µ [2, 10]: 40.15% | Part. Size (mg collected) per 20 actuations 1 µ [2, 11]: 0.583 mg | Part. Size (mg collected) per 20 actuations 2 µ [2, 11]: 1.236 mg | cum % 1-8 µ [2, 11]: 35.00% | Part. Size (mg collected) per 20 actuations 1 µ [2, 12]: 0.336 mg | Part. Size (mg collected) per 20 actuations 2 µ [2, 12]: 0.852 mg | Pressure PSI [2, 12]: 52 PSI | cum % 1-8 µ [2, 12]: 32.09% | Part. Size (mg collected) per 20 actuations 1 µ [2, 13]: 0.447 mg | Part. Size (mg collected) per 20 actuations 2 µ [2, 13]: 0.901 mg | Pressure PSI [2, 13]: 52.0 PSI | cum % 1-8 µ [2, 13]: 28.77% | Part. Size (mg collected) per 20 actuations 1 µ [2, 14]: 0.394 mg | Part. Size (mg collected) per 20 actuations 2 µ [2, 14]: 0.818 mg | Pressure PSI [2, 14]: 53.7 PSI | cum % 1-8 µ [2, 14]: 28.79% | MMAD** [2, 3]: 3.0 and 2.8 | MMAD** [2, 4]: 4.0 | MMAD** [2, 5]: 3.5 | MMAD** [2, 6]: 3.0 | MMAD** [2, 8]: 3.8 | MMAD** [2, 9]: 3.8 and 4.0 | MMAD** [2, 10]: 4.0 | MMAD** [2, 11]: 4.5 | MMAD** [2, 12]: 6.0 | MMAD** [2, 13]: 5.75 | MMAD** [2, 14]: 6.0 | Part. Size (mg collected) per 20 actuations 4 µ* [2, 3]: 2.091 mg and 2.522 mg and 2.481 mg | Part. Size (mg collected) per 20 actuations 4 µ* [2, 4]: 1.611 mg | Part. Size (mg collected) per 20 actuations 4 µ* [2, 5]: 2.283 mg | Part. Size (mg collected) per 20 actuations 4 µ* [2, 7]: 1.871 mg and 1.715 mg | Part. Size (mg collected) per 20 actuations 4 µ* [2, 8]: 2.772 mg | Part. Size (mg collected) per 20 actuations 4 µ* [2, 9]: 3.121 mg and 3.103 mg and 2.744 mg | Part. Size (mg collected) per 20 actuations 4 µ* [2, 10]: 2.657 mg | Part. Size (mg collected) per 20 actuations 4 µ* [2, 11]: 3.546 mg | Part. Size (mg collected) per 20 actuations 4 µ* [2, 12]: 2.084 mg | Part. Size (mg collected) per 20 actuations 4 µ* [2, 13]: 2.879 mg | Part. Size (mg collected) per 20 actuations 4 µ* [2, 14]: 2.381 mg | mg at 1-8 µ [2, 3]: 3.512 mg and 4.658 mg and 4.680 mg | mg at 1-8 µ [2, 4]: 3.277 mg | mg at 1-8 µ [2, 5]: 3.987 mg | mg at 1-8 µ [2, 7]: 3.612 mg and 3.062 mg | mg at 1-8 µ [2, 8]: 4.806 mg | mg at 1-8 µ [2, 9]: 5.015 mg and 5.066 mg and 4.488 mg | mg at 1-8 µ [2, 10]: 4.673 mg | mg at 1-8 µ [2, 11]: 5.365 mg | mg at 1-8 µ [2, 12]: 3.272 mg | mg at 1-8 µ [2, 13]: 4.227 mg | mg at 1-8 µ [2, 14]: 3.593 mg
Structure (SMILES): CCCCCC(O)c1cccc(OCc2ccc3ccccc3n2)c1 (stereo not drawn) [Compound of Example 1, 2-(3-(l-Hydroxyhexyl)phenoxymethyl)quinoline hydrochloride]
percent inhibition of the mean control response (Male Hartley guinea pigs): 53% | normalized postchallenge increase in PAW (ratio of antigen-induced to LTD4-induced bronchoconstriction), mean response (Male Hartley guinea pigs; mean and standard error): 0.60 ± 0.16
